Here are results for one substance from patent US7001735B2, “Glucose transporter/sensor protein and uses thereof” (Albert Einstein College of Medicine of Yeshiva University, priority 2000, dated 2006).

Assay [1] has as its system GLUTx. Briefly: Immunocytochemical localisation of GLUTx in insulin-stimulated MTLn3 cells. Format: cell-based, rat. The note with it: insulin 500 nM, 1 h, basal state perinuclear Golgi region, data not shown. On the procedure: (§1) Immunohistochemistry was performed according to protocols provided by the Dako LSAB (labeled streptoavidin biotin reagents) and Dako EnVision+System (peroxidase, DAB) kits. However, some modifications were made. In brief, tissue on a slide was deparaffinized in xylene, and rehydrated in water. For cells that were processed, the slides or coverslips containing the cells were fixed in 4% paraformaldehyde for 1 h, then washed 4 times in buffered solution (TBS). The slides were placed in 3% H2O2 for 15 min in a 37° C. water bath to quench endogenous peroxidase activity. Epitope retrieval in paraffin-embedded tissue was achieved by heating the slides to 95° C. in a pre-heated citric acid solution (0.01 M citric acid, 0.01 M sodium citrate; pH 6.0). This temperature was maintained for 15 min in a microwave on high power or in a steam bath. The slides then were cooled. At this point, processing was started for the slides containing fixed cells.
(§2) Next, the primary antibody to GLUTx was applied to the slides for 30 min at room temperature (RT). Slides were rinsed in TBS 3 times for 5 min. The slides then were incubated with secondary antibody, as provided in the kit, for 15–20 min at RT. The slides were rinsed well with PBS, and the tertiary reagent (Strep-Avidin or HRP-labeled EnVision polymer) was applied for 15–20 min at RT. […]

Assay [2] concerns GLUTx. The assay is described as follows: Immunocytochemical localisation of GLUTx in insulin-stimulated MTC cells. The note with it: insulin 500 nM, 1 h, basal state mainly perinuclear Golgi region, data not shown. Format: cell-based, rat. On the procedure:
as §1, §2

In the case of “insulin: hormone used to stimulate the cells (500 nM for 1 h)”, the “distribution of GLUTx (light microscopy)” value was “also associated with the cell membrane” with GLUTx [1] and “localized also on the cell membrane” in the assay with GLUTx [2].
